# Test system: TOP10 Escherichia coli cells
# Assay type: cell-based
# Details: 100 mM maltose; SP biosensor with No Sites or Go66 reporter
# Experimental: All experiments were conducted in TOP10 Escherichia coli cells (F-mcrA Δ(mrr-hsdRMS-mcrBC) φ80lacZAM15 ΔlacX74 nupG recAl araD139 Δ(ara-leu)7697 galE15 galK16 rpsL(Str^R) endA1 λ^−) (Life Technologies). Cells were maintained in Lysogeny Broth (LB) Lennox formulation (10 g/L of tryptone, 5 g/L of yeast extract, 5 g/L of NaCl) supplemented with appropriate antibiotics (Ampicillin 100 μg/mL or Kanamycin 50 μg/mL). All experimental analysis was conducted in M9 minimal media (1×M9 salts, 0.2% Casamino Acids, 2 mM MgSO^4, 0.1 mM CaCl^2, 1 mM Thiamine HCl) containing glycerol (0.4%) as the primary carbon source. 1% arabinose and variable amounts of maltose monohydrate and isopropyl β-D-1-thiogalactopyranoside (IPTG) were added as indicated. M9 medium containing both Ampicillin and Kanamycin was used to maintain the strains that contained both a reporter plasmid and a biosensor plasmid.
# Cultures were inoculated from single colonies into 2 mL of M9 media and grown overnight to stationary phase. Overnight cultures were diluted 1:20 and grown into exponential phase (OD600˜0.5). […] Plates with lids were incubated and shaken in a continuous double orbital pattern at 548 cpm (2 mm) inside a BioTek Synergy H1 plate reader for 10 h with GFP, mCherry, and OD600 measurements taken every 15 min. […]
smiles,measurement,value
OC[C@H]1O[C@H](O[C@H]2[C@H](O)[C@@H](O)C(O)O[C@@H]2CO)[C@H](O)[C@@H](O)[C@@H]1O (mixture of isomers) [maltose],impact on cell growth,did not substantially impact cell growth

# Reference: patent publication US10604552B2, “Generation of novel metabolite-responsive transcription regulator biosensors” (NORTHWESTERN UNIVERSITY, priority 2016, dated 2020)
